Tests used:
male C57BL/6NCrl mice = assay: Object Location Task (OLT), spatial memory, 24 h retention interval; type: in vivo; conditions: for d2 index, discrimination index for T2: 3 h after T1, 24 h interval
Source text: The objective of this study was to evaluate the cognitive improvement effects of Roflumilast on spatial memory employing Object Location Task (OLT) in male C57BL/6NCrl mice. Roflumilast was compared with data of the already established PDE4 inhibitor Rolipram in the same model.
Twenty-four 7 month-old male C57BL/6NCrl mice (Charles River, L'Arbresle, France) were used (average body weights: 27.6 g). The animals were kept under a 12/12-hour light/dark cycle (lights on from 07.00 pm to 07.00 am) with free access to food and water. All testing was done between 09.00 am and maximally 06.00 pm.
Both rolipram (Sigma-Aldrich St. Louis, USA; MW 275.34) and roflumilast (Biocrea, Radebeul, Germany; MW 403.21) were dissolved in dimethylsulfoxide (DMSO) and kept at 4° C.; this stock solution was used for further dilutions in 0.5% methylcellulose. Each of rolipram and roflumilast is used in form of its free base. All injected solutions consisted of 0.5% methylcellulose with a fixed DMSO percentages (1.2%) (vehicle).
For the Object Location Task (OLT), doses of 0.01 mg/kg, 0.03 mg/kg and 0.1 mg/kg of Rolipram or Roflumilast or vehicle were administered subcutaneously (s.c.). Based on previous findings, PDE4 inhibitor single administration was performed 3 hours after the first trial as this has an optimum effect on object memory performance. The injection volume was 5 μl/g.
The OLT apparatus consisted of a circular arena, 40 cm in diameter. Half of the 40 cm transparent polyvinyl chloride wall was covered from the outside with white paper. Two objects were placed symmetrically about 10 cm away from the wall on the separation line, between the transparent and covered side of the arena. Four different sets of objects were available: (1) a cone made of brass (maximal diameter 6 cm and total height 3.8 cm), (2) a transparent glass bottle (diameter 2.7 cm, height 8.5 cm) filled with sand and water, (3) a massive metal cube (2.5 cm×5 cm×7.5 cm) with two holes (diameter 1.5 cm), and (4) a massive aluminum cube with a tapering top (4.5 cm×4.5 cm×8.5 cm).
A testing session comprised two trials of 4 minutes. Before each trial, mice were placed in an empty Makrolon cage (incubation cage) for the same amount of time as the trial (4 min). During the first trial (T1), two identical objects were placed symmetrically about 10 cm away from the wall on the separation line between the transparent and covered side of the arena. After the first exploration period of 4 min, the mouse was put back in its home cage. Mice then received treatment at 3 hours post T1. Subsequently, after a predetermined delay interval (24 h), the mouse was placed in the apparatus for the second trial of 4 min (T2). Two identical objects as in T1 were used; one object was placed in the previously used position, whereas the other was placed in a novel position. The novel position of the object could either be a fixed distance towards the front or a fixed distance towards the back of the arena for both objects. The times spent exploring each object during T1 and T2 were recorded manually using a personal computer. All objects and locations were used in a balanced manner to exclude possible object and/or location preferences. To avoid olfactory cues, the objects were thoroughly cleaned with 70% ethanol after each trial. The testing order of conditions was determined randomly.
The measurements reflected the time spent by the mice in exploring each object during T1 and T2. The time spent in exploring the two identical samples in T1 were represented by ‘a1’ and ‘a2’, respectively. The time spent in exploring the sample and the new object in T2 were represented by ‘a’ and ‘b’, respectively. From these exploration times the following variables were calculated: e1, e2, and d2 (Table 1). The d2 index is a relative measure of discrimination corrected for exploratory activity. […]

healthy adults [1] = assay: Verbal Learning Task (VLT) in healthy adults, 18 to 35 years; type: in vivo, human
Source text: The study utilized Verbal Learning Task (VLT) to analyze the increased number of words remembered following roflumilast administration. The VLT consisted of displaying 30 monosyllable words on a computer screen for a period of 60 seconds. Immediately after the presentation of the words on the computer screen subjects were asked to report as many words as they could recall by memory. This process (presentation and recall) was repeated further two times (VLT, immediate recall, 3 trials). In addition, 45 min and 24 h after the last presentation, subjects were again asked to report as many words as they could recall by memory (VLT, delayed recall 45 min and 24 h). The set of three recall trials was conducted 60 minutes following administration of the roflumilast therapy
(§1) Statistical Data Analyses Human data was analyzed using IBM SPSS Statistics version 20. General Linear Models for repeated measures were applied with the placebo condition included as contrast. Statistical outcomes for Tests of Within-Subjects Effects and Tests of Within-Subjects Contrasts were regarded for immediate and delayed free recall scores and for the summed immediate recall score (i.e. immediate 1+immediate 2+immediate 3). The factor Treatment (4 levels; placebo, roflumilast 100 mcg, roflumilast 300 mcg and roflumilast 1000 mcg) was included as a within subjects factor. For the analysis of the EEG data, the factor Channel (5 levels; Fz, FCz, Cz, CPz, and Pz) was included as a second within subjects factor. Peak and latency values of three memory related ERP's were analysed; i.e. P300, N400 and P600. In case of significant findings (p<0.05) post-hoc t-tests were performed to reveal which of the five midline electrodes contributed to the effect

healthy adults [2] = assay: EEG Event Related Potentials (P300, N400, P600) during VLT in healthy adults; type: in vivo, human; conditions: for ERP P600 amplitude (in words): 100 mcg, during VLT
Description: An electroencephalogram (EEG) cap was used to place a set of 32 EEG electrodes according to the international 10-20 system on the subjects. Event Related Potentials (ERPs) were extracted by averaging the responses within an epoch of 100 ms before and 1000 ms after stimulus onset covering P300, N400, and P600. Separate averages were made for correct and incorrect responses within a task and for different trial types. EEG measurements were done simultaneously with VLT testing. ERPs were calculated from the words that were called during immediate recall (encoding), and from the words that were recognized and from those that were not during the recognition condition at 45 minutes. The ERP components of P300, N400, and P600 were compared to examine whether the initial stimulus processing during the learning trials differs from word to word. Finally, ERPs to the old and new items during the recognition task were measured.
as §1

O=C(Nc1c(Cl)cncc1Cl)c1ccc(OC(F)F)c(OCC2CC2)c1 [roflumilast, N-(3,5-dichloropyridin-4-yl)-3-cyclopropylmethoxy-4-difluoromethoxybenzamide]
d2 index, discrimination index for T2 (male C57BL/6NCrl mice; 0.01 mg/kg s.c.): 0.04
d2 index, discrimination index for T2 (male C57BL/6NCrl mice; 0.03 mg/kg s.c.): 0.34
d2 index, discrimination index for T2 (male C57BL/6NCrl mice; 0.1 mg/kg s.c.): 0.00
dose effective in improving spatial memory (male C57BL/6NCrl mice; s.c.): 0.03 mg/kg
effect on spatial memory (in words) (male C57BL/6NCrl mice; single subcutaneous 0.01 mg/kg): nearly no effect
effect on spatial memory (in words) (male C57BL/6NCrl mice; single subcutaneous 0.03 mg/kg): pronounced effect on spatial memory
effect on spatial memory (in words) (male C57BL/6NCrl mice; single subcutaneous 0.1 mg/kg): completely no effect
number of correct words recalled after 3rd trial (in words) (healthy adults [1]; 100 mcg): significant increase in the number of correct words recalled
placebo-corrected fold-improvement (healthy adults [1]; 100 mcg, 3rd trial, healthy volunteer study): 1.12
number of words on the 3rd trial (healthy adults [1]; 100 mcg, young volunteers): 23.7 words
number of correct words recalled (in words) (healthy adults [1]; 300 mcg and 1000 mcg, FIG. 2): some effect
improvement in number of correct words recalled, average (healthy adults [1]; single oral dose 100 mcg, after the third trial): 2.5 words
ERP P600 amplitude (in words) (healthy adults [2]): strongest increase of amplitude
ERP P600 amplitude (in words) (healthy adults [2]; listed as Roflumilast): increased amplitude
ERP P600 (in words) (healthy adults [2]; 300 mcg and 1000 mcg, FIG. 3): some effect

— patent US20150051246A1 (priority 2013, published 2015)
